The text below walks through data of patent US20050090399A1, “Phenyl substituted heterocyclic compounds useful as herbicides” (priority 2002, published 2005).

The test system of one data set is Alopecurus (Alo). The experiment in a line: Pre-emergence herbicidal action, greenhouse pot test: Alopecurus. The conditions noted are these: 125 g/ha. In kind it is in vivo. How it is done:
(§1) Monocotyledonous and dicotyledonous weeds and summer wheat (Lona) are sown in standard soil in plastics pots. Directly after sowing, the test compounds are applied as EC 125 and WP 10 (without additional surface-active compounds). The rate of application is 125 g of active substance per ha. The test plants are then grown on in the greenhouse under optimum conditions. Evaluation is carried out 20 days after application: 100 denotes 100% damage to the plant in question.
(§2) Test plants: Agrostis (Agr), Alopecurus (Alo), Phalaris (Pha), Lolium (Lol) and Setaria (Set).

Another data set has as its system summer wheat (Lona). The experiment in a line: Pre-emergence herbicidal action, greenhouse pot test: damage to summer wheat. The conditions noted are these: 125 g/ha. In kind it is in vivo. The method, then: as §1, §2
For another data set, the system named is Phalaris (Pha). Briefly: Pre-emergence herbicidal action, greenhouse pot test: Phalaris. In kind it is in vivo. To be noted: 125 g/ha. How it is done:
as §1, §2

The subject of another data set is Lolium (Lol). Briefly: Pre-emergence herbicidal action, greenhouse pot test: Lolium. In kind it is in vivo. To be noted: 125 g/ha. The method, then:
as §1, §2

Another data set deals with Setaria (Set). Briefly: Pre-emergence herbicidal action, greenhouse pot test: Setaria. In kind it is in vivo. To be noted: 125 g/ha. The method, then:
as §1, §2

A further data set concerns Agrostis (Agr). Briefly: Pre-emergence herbicidal action, greenhouse pot test: Agrostis. To be noted: 125 g/ha. In kind it is in vivo. How it is done: as §1, §2
The mark [1] stands for this setting: applied directly after sowing as WP 10, evaluation 20 days after application.
The mark [2] stands for this setting: applied directly after sowing as EC 125, evaluation 20 days after application.

The melting point is the temperature of the solid-liquid transition. Compound `CCCCCCCCCCCC(=O)Oc1c(-c2c(CC)cc(C)cc2CC)c(=O)n2n1CCOCC2` [1.01] registered a melting point of 106 to 107 °C.

As to `CCCCCCCCCCCCCCCC(=O)Oc1c(-c2c(CC)cc(C)cc2CC)c(=O)n2n1CCOCC2` [1.02], the melting point is 91 to 92 °C.

For `CCCCCCCC/C=C\CCCCCCCC(=O)Oc1c(-c2c(CC)cc(C)cc2CC)c(=O)n2n1CCOCC2` [compound 1.03], in the data set on Alopecurus (Alo) (setting [1]), the “Herbicidal action (damage to the plant), Alo” value (shortened to “Herbicidal action … Alo”) is listed as 90%. The “Herbicidal action (damage to the plant), wheat” value (“Herbicidal action … wheat” for short) with summer wheat (Lona) (setting [1]) was 10%. In the data set on Phalaris (Pha) (setting [1]), the “Herbicidal action (damage to the plant), Pha” value (from here on “Herbicidal action … Pha”) was found to be 100%. Also, the “Herbicidal action (damage to the plant), Lol” value (“Herbicidal action … Lol” below) with Lolium (Lol) (setting [1]) is 90%. For the same compound, the “Herbicidal action (damage to the plant), Set” value (shortened to “Herbicidal action … Set”) in the data set on Setaria (Set) (setting [1]) is reported as 100%. Further, the “Herbicidal action (damage to the plant), Agr” value (“Herbicidal action … Agr” for short) with Agrostis (Agr) (setting [1]) stood at 98%.

For the compound `CCCCCCCC/C=C\CCCCCCCCC(C)(C)C(=O)Oc1c(-c2c(CC)cc(C)cc2CC)c(=O)n2n1CCOCC2` [compound 1.05b], in the data set with Alopecurus (Alo) (setting [1]), the “Herbicidal action … Alo” value is on record as 80%. The “Herbicidal action … wheat” value in the data set on summer wheat (Lona) (setting [1]) turned out to be 0%. Moreover, the “Herbicidal action … Pha” value in the data set on Phalaris (Pha) (setting [1]) is listed as 100%. In the data set with Lolium (Lol) (setting [1]), the “Herbicidal action … Lol” value stood at 70%. In addition, the “Herbicidal action … Set” value with Setaria (Set) (setting [1]) amounted to 70%. In addition, in the data set with Agrostis (Agr) (setting [1]), the “Herbicidal action … Agr” value came out at 80%.

Consider `CCCCCCCC/C=C\CCCCCCCCC(C)C(=O)Oc1c(-c2c(CC)cc(C)cc2CC)c(=O)n2n1CCOCC2` (centres unmarked) [compound 1.12b], for which, in the data set on Alopecurus (Alo) (setting [1]), the “Herbicidal action … Alo” value worked out at 90%. Further, the “Herbicidal action … wheat” value in the data set on summer wheat (Lona) (setting [1]) turned out to be 10%. For the same compound, the “Herbicidal action … Pha” value in the data set on Phalaris (Pha) (setting [1]) was found to be 100%. For the same compound, the “Herbicidal action … Lol” value in the data set with Lolium (Lol) (setting [1]) was 80%. The “Herbicidal action … Set” value in the data set on Setaria (Set) (setting [1]) was found to be 90%. In the data set with Agrostis (Agr) (setting [1]), the “Herbicidal action … Agr” value turned out to be 95%.

On to `CCc1cc(C)cc(CC)c1C1C(=O)N2CCOCCN2C1=O` [compound A, 8-(2,6-diethyl-4-methyl-phenyl)-tetrahydropyrazolo[1,2-d][1,4,5]oxadiazepine-7,9-dione, reference compound], for which, in the data set on Alopecurus (Alo) (setting [2]), the “Herbicidal action … Alo” value was determined as 100%. The “Herbicidal action … wheat” value in the data set on summer wheat (Lona) (setting [2]) is reported as 20%. Further, in the data set with Phalaris (Pha) (setting [2]), the “Herbicidal action … Pha” value turned out to be 100%. The “Herbicidal action … Lol” value in the data set on Lolium (Lol) (setting [2]) stood at 98%. The “Herbicidal action … Set” value in the data set on Setaria (Set) (setting [2]) turned out to be 100%. Also, the “Herbicidal action … Agr” value in the data set with Agrostis (Agr) (setting [2]) was determined as 95%.
